# Experimental data as given in patent publication US11529344B2, “EZH2 inhibitor combination therapies” (Pfizer Inc., priority 2017, dated 2022).
# Legend:
# H69 SCLC cells = test: Cell growth inhibition assay, H69 SCLC cells; type: cell-based; conditions: Homo sapiens, NCI-H69, 504 h; H69 cell line, 21 days of treatment; read-out: inhibition of cell proliferation, mean IC50
# Method: COR-L88 (92031917) cells were purchased from ECACC. […] No. 1565565).
# H841, H446 and H69 cells were plated in their recommended complete culture medium described above (1 mL/well) in triplicate 12 well plates for each cell line at a density of 100,000 cells per well. Plates were incubated overnight at 37° C. and 5% CO2. Compound 1 stock was prepared at 50 mM in DMSO and was dispensed to several single-use aliquots and stored at −20° C. To prepare the compound plate, Compound 1 was diluted to 3 mM in DMSO and then 3-fold serial dilution were made in DMSO (10 doses in total). […] On Day 21, cell morphology was observed under microscope and any morphology changes upon compound treatment were recorded. […] Cell viability was measured using according to manufacturer's instructions.
# Based on the strong activity observed with Compound 1 in DMS114 cells (see example 1 above), the antiproliferative activity of Compound 1 was also tested in 3 additional SCLC cell lines, namely H841, H446 and H69 using the cell proliferation assay described above. Each cell line was treated with different concentrations of Compound 1 using a 10-point dose curve (1:3 dilution in DMSO) with 3 μM to 0.1 nM for 21 days and then assessed for cell viability. […]
# [1] = tested on: H3K27Me2 in DMS114 tumors; test: H3K27Me2 ELISA on histones of DMS114 xenograft tumors; type: in vivo, female NOD/SCID mice; conditions: Mus musculus, DMS-114, 1320 h; 300 mg/kg BID, tumors harvested at Day 55; read-out: maximum inhibition of H3K27Me2 in tumor samples
# Method: Extracts were aliquoted and stored at −20° C. (short term) or −80° C. (long term). […] Data was analyzed using GraphPad Prism version 7.02.
# The in vivo activity of Compound 1 against EZH2 in the DMS114 SCLC xenograft model was determined by measurement of the relative amount of cellular H3K27Me3 and Me2 levels with ELISA using the tumor tissue samples harvested at Day 55 from the study described in Example 3 above.
# [2] = tested on: EZH2 (H3K27Me3 levels) in DMS114 SCLC cells containing wild-type EZH2; test: cells; conditions: Homo sapiens, DMS-114, 72 h, read-out: H3K27Me3 IC50 ± SD (nM) (n)
# Method: SCLC cell line DMS114 was obtained from American Type Culture Collection (American Type Culture Collection, ATCC CRL-2066) and cultured in Waymouth's Medium MB 752/1 (Gibco/Life Technologies Cat. 11220-035), plus 10% Fetal Bovine Serum (FBS) (Gibco/Life Technologies Cat. 10082-147) and 1% Pen/Strep. […] All cells were maintained in a humidified incubator at 37° C. with 5% carbon dioxide (CO2).
# Cells were plated at 1500 cells per well in 96-well black, flat, clear-bottom plates (Falcon, BD-353219). The following day, compounds were added to the wells at 3-fold dilution with a final concentration range from 3 μM to 0.1 nM, leaving some cells empty for controls: “DMSO only (1st and 2nd antibody)” and “DMSO only (2nd antibody only)”. […] After 2 hours, the secondary antibody was removed, the plates were washed again 5 times in PBST for 5 minutes each and then fluorescent signal was detected on an Odyssey LiCoR instrument (focus length 3 mm; using both 800 nm (for secondary) and 700 nm filters together (for DRAQ5). IC50 values were calculated using a four-parameter fit with GraphPad Prism version 7.02 and arithmetic mean of all biological replicates was calculated.
# EZH2 inhibitor activity was determined in the cells by measurement of the relative amount of cellular H3K27Me3 levels.
smiles,measurement,setting,value
"COc1cc(C)[nH]c(=O)c1CN1CCc2c(Cl)cc([C@H](OC)C3COC3)c(Cl)c2C1=O [Compound 1, 5,8-dichloro-2-[(4-methoxy-6-methyl-2-oxo-1,2-dihydro-pyridin-3-yl)methyl]-7-[(R)-methoxy(oxetan-3-yl)methyl]-3,4-dihydroisoquinolin-1(2H)-one]",IC50,H69 SCLC cells,224 nM
same,inhibition at 300 mg/kg,[1],82%
same,IC50,[2],9.48 nM
